Reference: PubChem BioAssay (NCI)
Values joined by “and” are separate entries in the source; they are usually repeats but may differ in a detail not shown here. Identical values can stand only once.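 Assay format: 96-well plates, 48-hour exposure. The concentration for 50% growth inhibition is given as GI50. TGI is the concentration that stops growth completely.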

What was measured:
Assay in all cases: inhibition of tumour cell growth, NCI panel, 48 h
COLO 205 colon = test system: COLO 205 colon
SF-268 CNS = test system: SF-268 CNS
HL-60(TB) leukemia = test system: HL-60(TB) leukemia
A549 NSCLC = test system: A549 NSCLC
HT29 colon = test system: HT29 colon
SW-620 colon = test system: SW-620 colon
SK-MEL-2 melanoma = test system: SK-MEL-2 melanoma
LOX IMVI melanoma = test system: LOX IMVI melanoma
A498 renal = test system: A498 renal
786-0 renal = test system: 786-0 renal

Compound	GI50 (COLO 205 colon)	TGI (COLO 205 colon)	GI50 (SF-268 CNS)	TGI (SF-268 CNS)	GI50 (HL-60(TB) leukemia)	TGI (HL-60(TB) leukemia)	GI50 (A549 NSCLC)	TGI (A549 NSCLC)	GI50 (HT29 colon)	TGI (HT29 colon)	GI50 (SW-620 colon)	TGI (SW-620 colon)	GI50 (SK-MEL-2 melanoma)	TGI (SK-MEL-2 melanoma)	GI50 (LOX IMVI melanoma)	TGI (LOX IMVI melanoma)	GI50 (A498 renal)	TGI (A498 renal)	GI50 (786-0 renal)	TGI (786-0 renal)
O=C(c1cc(Cc2n[nH]c(=O)c3ccccc23)ccc1F)N1CCN(C(=O)C2CC2)CC1	> 100 µM	> 100 µM	53.2 µM and 59.6 µM	> 100 µM	> 100 µM	> 100 µM	> 100 µM	> 100 µM	> 100 µM	> 100 µM	64.4 µM and > 94.1 µM	> 100 µM	> 100 µM	> 100 µM	18.9 µM and 66.3 µM	> 100 µM	19 µM and > 55.7 µM	> 100 µM	> 100 µM	> 100 µM
Cn1c(C(=O)c2cccc3ccccc23)nc2ccccc21	> 100 µM	> 100 µM	> 100 µM	> 100 µM	> 100 µM	> 100 µM	> 100 µM	> 100 µM	> 100 µM	> 100 µM	> 100 µM	> 100 µM	> 100 µM	> 100 µM	> 100 µM	> 100 µM	8.59 µM	> 100 µM	> 100 µM	> 100 µM
O=C(c1ccco1)c1c(C(F)(F)F)n([O-])c2cc(F)c(F)cc2[n+]1=O	0.229 µM	3.06 µM	0.29 µM	1.09 µM	0.4 µM	2.74 µM	1.32 µM	3.12 µM	0.609 µM	> 100 µM		0.0132 µM	2.93 µM	12.8 µM		0.459 µM	4.88 µM	17.3 µM	0.0512 µM	0.137 µM
CC(C)OC(=O)C1Cc2c([nH]c3ccccc23)C(c2ccccc2)N1 (stereo not drawn)		> 100 µM		> 100 µM		> 100 µM		> 100 µM		> 100 µM		> 100 µM		41.2 µM		> 100 µM		> 100 µM		> 100 µM
O=S(=O)(NCCCNc1nccc(-c2c(-c3ccc(F)cc3)nc3sccn23)n1)c1ccc(F)cc1	6.23 µM	> 100 µM	20 µM	> 100 µM	8.38 µM	> 100 µM	4.87 µM	> 100 µM	3.52 µM	21.4 µM	33.2 µM	> 100 µM	23.2 µM	> 100 µM	6.28 µM	> 100 µM	2.25 µM	45.6 µM	11 µM	> 100 µM
O=C1/C(=C/c2ccccc2O)N=C(c2ccccc2)N1c1cc(C(F)(F)F)ccc1Cl	> 100 µM	> 100 µM	26.2 µM	97.4 µM	> 100 µM	> 100 µM	75.7 µM	> 100 µM	> 100 µM	> 100 µM	> 100 µM	> 100 µM	> 100 µM	> 100 µM	40.8 µM	> 100 µM	59.4 µM	> 100 µM	18.3 µM	44.1 µM
